Results reported in PubChem BioAssay (NCI).
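Each compound was tested at five concentrations against cells in 96-well plates for 48 hours. The concentration for full growth arrest is given as TGI.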

Assays:
Assay in all cases: DTP human tumour cell line panel, 48 h
786-0 renal = test system: 786-0 renal
A549 NSCLC = test system: A549 NSCLC
ACHN renal = test system: ACHN renal
BT-549 breast = test system: BT-549 breast
CAKI-1 renal = test system: CAKI-1 renal
CCRF-CEM leukemia = test system: CCRF-CEM leukemia
COLO 205 colon = test system: COLO 205 colon
DU-145 prostate = test system: DU-145 prostate
EKVX NSCLC = test system: EKVX NSCLC
HCC-2998 colon = test system: HCC-2998 colon
HCT-116 colon = test system: HCT-116 colon
HCT-15 colon = test system: HCT-15 colon
HL-60(TB) leukemia = test system: HL-60(TB) leukemia
HOP-62 NSCLC = test system: HOP-62 NSCLC
HS 578T breast = test system: HS 578T breast
HT29 colon = test system: HT29 colon
IGROV1 ovarian = test system: IGROV1 ovarian
K-562 leukemia = test system: K-562 leukemia
KM12 colon = test system: KM12 colon
LOX IMVI melanoma = test system: LOX IMVI melanoma
M14 melanoma = test system: M14 melanoma
MALME-3M melanoma = test system: MALME-3M melanoma
MCF7 breast = test system: MCF7 breast
MDA-MB-231 breast = test system: MDA-MB-231 breast
MDA-N = test system: MDA-N
MOLT-4 leukemia = test system: MOLT-4 leukemia
NCI-H226 lung = test system: NCI-H226 lung
NCI-H23 lung = test system: NCI-H23 lung
NCI-H460 lung = test system: NCI-H460 lung
NCI-H522 lung = test system: NCI-H522 lung
NCI/ADR-RES ovarian = test system: NCI/ADR-RES ovarian
OVCAR-4 ovarian = test system: OVCAR-4 ovarian
OVCAR-5 ovarian = test system: OVCAR-5 ovarian
OVCAR-8 ovarian = test system: OVCAR-8 ovarian
PC-3 prostate = test system: PC-3 prostate
RXF 393 renal = test system: RXF 393 renal
SF-268 CNS = test system: SF-268 CNS
SF-295 CNS = test system: SF-295 CNS
SF-539 CNS = test system: SF-539 CNS
SK-MEL-2 melanoma = test system: SK-MEL-2 melanoma
SK-MEL-28 melanoma = test system: SK-MEL-28 melanoma
SK-MEL-5 melanoma = test system: SK-MEL-5 melanoma
SK-OV-3 ovarian = test system: SK-OV-3 ovarian
SN12C renal = test system: SN12C renal
SNB-19 CNS = test system: SNB-19 CNS
SNB-75 CNS = test system: SNB-75 CNS
SR leukemia = test system: SR leukemia
SW-620 colon = test system: SW-620 colon
T-47D breast = test system: T-47D breast
TK-10 renal = test system: TK-10 renal
U251 CNS = test system: U251 CNS
UACC-257 melanoma = test system: UACC-257 melanoma
UACC-62 melanoma = test system: UACC-62 melanoma
UO-31 renal = test system: UO-31 renal
HOP-92 NSCLC = test system: HOP-92 NSCLC
MDA-MB-435 = test system: MDA-MB-435
OVCAR-3 ovarian = test system: OVCAR-3 ovarian
RPMI-8226 leukemia = test system: RPMI-8226 leukemia
A498 renal = test system: A498 renal

COc1ccc(OC)c(C(=O)c2cccc(C(=O)c3cc(OC)ccc3OC)n2)c1
TGI (786-0 renal): > 100 µM
TGI (A549 NSCLC): > 100 µM
TGI (ACHN renal): > 100 µM
TGI (BT-549 breast): 79.2 µM
TGI (CAKI-1 renal): > 100 µM
TGI (CCRF-CEM leukemia): > 100 µM
TGI (COLO 205 colon): > 100 µM
TGI (DU-145 prostate): > 100 µM
TGI (EKVX NSCLC): > 100 µM
TGI (HCC-2998 colon): > 100 µM
TGI (HCT-116 colon): > 100 µM
TGI (HCT-15 colon): > 100 µM
TGI (HL-60(TB) leukemia): 71.9 µM
TGI (HOP-62 NSCLC): > 100 µM
TGI (HS 578T breast): 84.5 µM
TGI (HT29 colon): > 100 µM
TGI (IGROV1 ovarian): > 100 µM
TGI (K-562 leukemia): > 100 µM
TGI (KM12 colon): > 100 µM
TGI (LOX IMVI melanoma): > 100 µM
TGI (M14 melanoma): > 100 µM
TGI (MALME-3M melanoma): > 100 µM
TGI (MCF7 breast): 67.5 µM
TGI (MDA-MB-231 breast): > 100 µM
TGI (MDA-N): 62.6 µM
TGI (MOLT-4 leukemia): > 100 µM
TGI (NCI-H226 lung): 74.9 µM
TGI (NCI-H23 lung): 74 µM
TGI (NCI-H460 lung): > 100 µM
TGI (NCI-H522 lung): > 100 µM
TGI (NCI/ADR-RES ovarian): > 100 µM
TGI (OVCAR-4 ovarian): > 100 µM
TGI (OVCAR-5 ovarian): > 100 µM
TGI (OVCAR-8 ovarian): > 100 µM
TGI (PC-3 prostate): > 100 µM
TGI (RXF 393 renal): 43.4 µM
TGI (SF-268 CNS): > 100 µM
TGI (SF-295 CNS): 74.5 µM
TGI (SF-539 CNS): > 100 µM
TGI (SK-MEL-2 melanoma): 70.9 µM
TGI (SK-MEL-28 melanoma): > 100 µM
TGI (SK-MEL-5 melanoma): 50.5 µM
TGI (SK-OV-3 ovarian): > 100 µM
TGI (SN12C renal): > 100 µM
TGI (SNB-19 CNS): > 100 µM
TGI (SNB-75 CNS): 59.4 µM
TGI (SR leukemia): > 100 µM
TGI (SW-620 colon): > 100 µM
TGI (T-47D breast): > 100 µM
TGI (TK-10 renal): > 100 µM
TGI (U251 CNS): > 100 µM
TGI (UACC-257 melanoma): > 100 µM
TGI (UACC-62 melanoma): > 100 µM
TGI (UO-31 renal): 85.9 µM

[N-]=[N+]=NC1=C(C(=O)c2ccccc2)C(=O)c2cccc3cccc1c23
TGI (786-0 renal): > 100 µM
TGI (A549 NSCLC): > 100 µM
TGI (ACHN renal): > 100 µM
TGI (BT-549 breast): > 100 µM
TGI (CAKI-1 renal): > 100 µM
TGI (CCRF-CEM leukemia): > 100 µM
TGI (COLO 205 colon): > 100 µM
TGI (EKVX NSCLC): 89.2 µM
TGI (HCT-116 colon): > 100 µM
TGI (HOP-62 NSCLC): 62 µM
TGI (HOP-92 NSCLC): > 100 µM
TGI (HS 578T breast): 61.4 µM
TGI (HT29 colon): > 100 µM
TGI (IGROV1 ovarian): 88.5 µM
TGI (K-562 leukemia): > 100 µM
TGI (KM12 colon): > 100 µM
TGI (M14 melanoma): > 100 µM
TGI (MALME-3M melanoma): > 100 µM
TGI (MCF7 breast): > 100 µM
TGI (MDA-MB-231 breast): 87.2 µM
TGI (MDA-MB-435): > 100 µM
TGI (MDA-N): > 100 µM
TGI (MOLT-4 leukemia): > 100 µM
TGI (NCI-H226 lung): > 100 µM
TGI (NCI-H23 lung): > 100 µM
TGI (NCI-H522 lung): 81.5 µM
TGI (NCI/ADR-RES ovarian): > 100 µM
TGI (OVCAR-3 ovarian): > 100 µM
TGI (OVCAR-4 ovarian): > 100 µM
TGI (OVCAR-5 ovarian): > 100 µM
TGI (OVCAR-8 ovarian): > 100 µM
TGI (PC-3 prostate): > 100 µM
TGI (RPMI-8226 leukemia): > 100 µM
TGI (RXF 393 renal): 71 µM
TGI (SF-268 CNS): 36.2 µM
TGI (SF-295 CNS): > 100 µM
TGI (SF-539 CNS): > 100 µM
TGI (SK-MEL-2 melanoma): 69.6 µM
TGI (SK-MEL-28 melanoma): > 100 µM
TGI (SK-MEL-5 melanoma): > 100 µM
TGI (SK-OV-3 ovarian): > 100 µM
TGI (SN12C renal): > 100 µM
TGI (SNB-19 CNS): > 100 µM
TGI (SNB-75 CNS): 33.4 µM
TGI (SR leukemia): 77.6 µM
TGI (SW-620 colon): > 100 µM
TGI (T-47D breast): > 100 µM
TGI (TK-10 renal): > 100 µM
TGI (U251 CNS): > 100 µM
TGI (UACC-257 melanoma): > 100 µM
TGI (UACC-62 melanoma): > 100 µM
TGI (UO-31 renal): > 100 µM

COc1cc(-c2nc3nc(N4CCN(C)CC4)ccc3[nH]2)c(OC)c2[nH]c(CO)nc12
TGI (786-0 renal): > 100 µM
TGI (A498 renal): > 100 µM
TGI (A549 NSCLC): > 100 µM
TGI (ACHN renal): > 100 µM
TGI (BT-549 breast): > 100 µM
TGI (CAKI-1 renal): > 100 µM
TGI (COLO 205 colon): > 100 µM
TGI (DU-145 prostate): > 100 µM
TGI (EKVX NSCLC): > 100 µM
TGI (HCC-2998 colon): > 100 µM
TGI (HCT-116 colon): > 100 µM
TGI (HCT-15 colon): > 100 µM
TGI (HOP-62 NSCLC): > 100 µM
TGI (HOP-92 NSCLC): > 100 µM
TGI (HS 578T breast): > 100 µM
TGI (HT29 colon): > 100 µM
TGI (IGROV1 ovarian): > 100 µM
TGI (K-562 leukemia): > 100 µM
TGI (KM12 colon): > 100 µM
TGI (LOX IMVI melanoma): > 100 µM
TGI (M14 melanoma): > 100 µM
TGI (MALME-3M melanoma): > 100 µM
TGI (MCF7 breast): > 100 µM
TGI (MDA-MB-231 breast): > 100 µM
TGI (MDA-MB-435): > 100 µM
TGI (MDA-N): > 100 µM
TGI (MOLT-4 leukemia): > 100 µM
TGI (NCI-H226 lung): > 100 µM
TGI (NCI-H23 lung): > 100 µM
TGI (NCI-H460 lung): > 100 µM
TGI (NCI-H522 lung): > 100 µM
TGI (NCI/ADR-RES ovarian): > 100 µM
TGI (OVCAR-3 ovarian): > 100 µM
TGI (OVCAR-4 ovarian): > 100 µM
TGI (OVCAR-5 ovarian): > 100 µM
TGI (OVCAR-8 ovarian): > 100 µM
TGI (RXF 393 renal): > 100 µM
TGI (SF-268 CNS): > 100 µM
TGI (SF-295 CNS): > 100 µM
TGI (SF-539 CNS): > 100 µM
TGI (SK-MEL-2 melanoma): 99.1 µM
TGI (SK-MEL-28 melanoma): > 100 µM
TGI (SK-MEL-5 melanoma): > 100 µM
TGI (SK-OV-3 ovarian): > 100 µM
TGI (SN12C renal): > 100 µM
TGI (SNB-19 CNS): > 100 µM
TGI (SNB-75 CNS): > 100 µM
TGI (SR leukemia): > 100 µM
TGI (SW-620 colon): > 100 µM
TGI (T-47D breast): > 100 µM
TGI (TK-10 renal): > 100 µM
TGI (U251 CNS): > 100 µM
TGI (UACC-257 melanoma): > 100 µM
TGI (UACC-62 melanoma): > 100 µM
TGI (UO-31 renal): > 100 µM
